The values below come from US5013837A, “3-Arylcarbonyl-1H-indole-containing compounds” (Sterling Drug Inc., priority 1990, dated 1991).

Assay [1] relates to mouse vasa deferentia (MVD) preparation. The assay is described as follows: mouse vas deferens test (MVD). Format: cell-based. Particulars: inhibition of contractions in vitro, active at IC50 of 5.0 μM or less. The source says: Med. Assoc. 217, 1392 (1971)]. […] Opth. 7, 921-923 (1975); Green and Pederson, Effect of delta-9 Tetrahydrocannabinol on Aqueous Dynamics and Ciliary Body Permeability in the Rabbit Eye., Exptl. Eye Research 15, 499-507 (1973); Colasanti, Craig and Allara, Intraocular Pressure, Ocular Toxicity and Neurotoxicity after Administration of Cannabinol or Cannibigerol, Exptl. Eye Research 39, 252-259 (1984)]. Similarly, synthetic cannabinoids also reduce intraocular pressure [Green, Symunds, Oliver and Elijah, Intraocular Pressure Following Systemic Administration of Cannabinoids, Curr Eye Research 2, 247-253 (1982); Tiedeman, Shields, Weber, Crow, Coccetto, Harris and Howes, Ophthalmology, 88, 270-277 (1981); Colasanti et al., supra]. Cannabinoid receptor binding sites can be defined as those to which radio-labelled 4-(1,1-dimethylheptyl)-2,3'-dihydroxy-6'alpha-(3-hydroxypropyl)-1',2',3',4',5',6'-hexahydrobiphenyl (CP 55940) binds in a specific and saturable manner, and the binding sites are heterogeneously distributed in the brain [Devane, Dysarz, Johnson, Melvin and Howlett, Determination and Characterization of a Cannabinoid Receptor in Rat Brain, Molecular Pharm. 34, 605-613 (1988)]. Natural and synthetic cannabinoids and representative examples of the compounds of the present invention bind to CP 55940 binding sites. […]

For assay [2] the following is noted: topical application or systemic injection; cited from earlier work.

Broadly, the IC50 is the point on the concentration scale where inhibition reaches its midpoint. A high value points to lower potency.

In assay [1], `O=C(c1ccc2ccccc2c1)c1cn(CCN2CCOCC2)c2ccccc12` [Example 1S] showed a half-maximal inhibitory concentration (IC50) of 50 nM.

Turning to `CCCCCc1cc(O)c2c(c1)OC(C)(C)[C@@H]1CCC(C)=C[C@@H]21` [delta-9 tetrahydrocannabinol], the “effect on intraocular pressure” value in assay [2] is given as “reduces intraocular pressure”.
